Measured values from patent publication US11026889B2, “Polymeric drug delivery systems for treatment of disease” (Board of Regents, The University of Texas System, priority 2015, dated 2021).

What was measured:
Miapaca-2 cells [1] = experiment: Cell proliferation MTS assay, Miapaca-2; format: cell-based; conditions: Homo sapiens, MIA PaCa-2, 72 h
Protocol: (§1) Assays of cell proliferation and clonogenicity. Cells were seeded at 2000 cells/well in 96-well plates and treated at 37° C. for 72 h before MTS [3-(4,5-dimethylthiazol-2-yl)-5-(3-carboxymethoxyphenyl)-2-(4-sulfophenyl)-2H- tetrazolium] assay. The proportion of viable cells was normalized to that of untreated cells and expressed as mean±standard error of the mean (n=6). […] Cells were seeded at 1000 cells per 10-cm plate in growth medium overnight and treated at 37° C. for 10 days. At the end of this 10-day period, colonies were fixed with formalin and stained with crystal violet. Colonies with more than 20 cells were counted.

L3.6pl cells = experiment: Cell proliferation MTS assay, L3.6pl; format: cell-based; conditions: Homo sapiens, 72 h
Protocol: as §1

Panc-1 cells = experiment: Cell proliferation MTS assay, Panc-1; format: cell-based; conditions: Homo sapiens, 72 h
Protocol: as §1

HPSCs = experiment: Cell proliferation MTS assay, HPSCs; format: cell-based; conditions: 72 h, read-out: IC50, HPSC proliferation
Protocol: as §1

Miapaca-2 cells [2] = experiment: Clonogenicity assay, Miapaca-2; format: cell-based, human; conditions: 3 μM, 10 days, vs no treatment
Protocol: as §1

[3] = system: spontaneous PDAC of KPC-luc mice; experiment: Survival study in KPC-luc mice; format: in vivo; conditions: KPC-luc mice enrolled at 95 to 100 days of age; CTL 139 days
Protocol: FIG. 22: Antitumor efficacy of M-CPA/PTX in a transgenic mice model with spontaneous PDAC in the pancreas of KPC-Luc mice. Mice with positive bioluminescence signals were enrolled at 95 to 100 days of age. M-CPA/PTX was given at 5 mg/kg/drug per injection. The treatment schedule was: 3 intravenous injections per week for the first 2 weeks, followed by 2 intraperitoneal injections per week until death or 90 days from the initiation of treatment. Untreated mice were kept as control (CTL). Gemcitabine and abraxane were used as the standard therapies. Gemcitabine was intraperitoneally injected at 100 mg/kg every other day until death. Abraxane was given at 5 mg/kg/injection following the same schedule as M-CPA/PTX.
The genetically engineered mouse model of PDAC (the KPC-luc mouse model) was also used to test for the antitumor efficacy of drug-loaded micelles on tumors in a survival study. […] The mice were assigned into four different groups: (1) mice with untreated […] (control group), (2) mice intravenously injected gemcitabine at 100 mg/kg every other day until death, (3) mice given Abraxane at 5 mg/kg/injection, and (4) M-CPA/PTX given at 5 mg/kg/drug per injection. […]

Row | SMILES | IC50 (Miapaca-2 cells [1]) [µM] | IC50 (L3.6pl cells) [µM] | IC50 (Panc-1 cells) [µM] | IC50 (HPSCs) [µM] | reduction of the number of colonies (Miapaca-2 cells [2]) [%] | median survival [3] [days]
1 | CC1=C2C[C@H]3[C@@H](CC=C4C[C@@H](O)CC[C@@]43C)[C@@H]2CC[C@]12O[C@@H]1C[C@H](C)CN[C@H]1[C@H]2C [CPA, cyclopamine] | 10.2 ± 0.1 | 16 ± 1.5 | ~163 | 13.3 ± 1.2 | 18.2±1.3 | 
2 | CC(=O)O[C@H]1C(=O)[C@@]2(C)[C@H]([C@H](OC(=O)c3ccccc3)[C@]3(O)C[C@H](OC(=O)[C@H](O)[C@@H](NC(=O)c4ccccc4)c4ccccc4)C(C)=C1C3(C)C)[C@]1(OC(C)=O)CO[C@@H]1C[C@@H]2O [PTX, paclitaxel] | 0.0012 ± 0.0001 | 0.0014 ± 0.0001 | 0.0024 ± 0.0004 |  |  | 
3 | Nc1ccn([C@@H]2O[C@H](CO)[C@@H](O)C2(F)F)c(=O)n1 [gemcitabine] |  |  |  |  |  | 167
